Assay results as given in patent US11634447B2 (priority 2012, dated 2023).

Columns and labels:
FimH-CRD [1] = biological target: T1, FimH-CRD (Escherichia coli, UniProt P08191); experiment: Competitive binding assay by fluorescence polarization, assay 1 (compounds prepared by manual dilution); parameters: species or system E. coli
T1 construct: The first 177 amino acids of the FimH protein are expressed as a fusion protein; thrombin tag (printed as 'fusion protein with thrombin') (cleaved yes); made in house; host or cells: bacteria (pET21b plasmid)
T1 sequence (P08191 22-177): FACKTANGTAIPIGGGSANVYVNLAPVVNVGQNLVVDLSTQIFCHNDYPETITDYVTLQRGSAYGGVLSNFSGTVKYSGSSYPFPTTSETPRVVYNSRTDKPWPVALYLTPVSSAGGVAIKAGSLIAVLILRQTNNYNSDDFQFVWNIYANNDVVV
In short: (§1)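 FimH-CRD (residues 1-177, tag removed) at 60 nM competed against 5 nM Alexa 647 mannoside probe in 50 mM Tris-Cl pH 7.0, 100 mM NaCl, 1 mM EDTA, 5 mM β-mercaptoethanol, 0.05% BSA, 2.5% DMSO; 5 h, room temperature, dark. Compounds 0.4 nM-75 μM final, 12-point 3-fold, duplicate; Kd from fluorescence polarization displacement curves. Assay 1: manual dilution; assay 2: robotic dilution, plates frozen/thawed.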

FimH-CRD [2] = biological target: T1, FimH-CRD; experiment: Competitive binding assay by fluorescence polarization, assay 2 (compounds prepared by a robotics system, plates frozen and thawed); parameters: species or system E. coli
In short: as §1

Measured: Kd

OC[C@H]1O[C@H](Cc2ccc(-c3ccc(C[C@H]4O[C@H](CO)[C@@H](O)[C@H](O)[C@@H]4O)cc3)cc2)[C@@H](O)[C@@H](O)[C@@H]1O [Compound 41, ((2R,3S,4R,5S,6R)-2-(Hydroxymethyl)-6-[[4-[4-[[(2R,3S,4R,5S,6R)-3,4,5-trihydroxy-6-(hydroxymethyl)tetrahydropyran-2-yl]methyl]phenyl]phenyl]methyl]tetrahydropyran-3,4,5-triol)]
< 5 nM: FimH-CRD [1]; Assay 1 Kd, 5 nM Alexa 647 mannoside probe, 60 nM FimH-CRD, replicate values in one cell | FimH-CRD [1]; read-out: Assay 1 Kd, 5 nM Alexa 647 mannoside probe, 60 nM FimH-CRD, replicate values in one cell | FimH-CRD [2]; Assay 2 Kd, 5 nM Alexa 647 mannoside probe, 60 nM FimH-CRD, replicate values in one cell | FimH-CRD [2]; read-out: Assay 2 Kd, 5 nM Alexa 647 mannoside probe, 60 nM FimH-CRD, replicate values in one cell
